Reference: patent US20090137661A1, “PLANT DERIVED COMPOUNDS AND COMPOUND FORMULAE CONTAINING THE SAME FOR THE TREATMENT OF CERVICAL CANCER” (priority 2007, published 2009)
Values after ≈ are worked out from the molar mass of the structure shown. Like-named read-outs stand apart in the source and are kept apart here.

How the values were obtained:
[1] = test system: HUVEC cells; test: Cytotoxicity assay (MTT assay) on HUVEC cells; assay type: cell-based, human; conditions: for IC50: Homo sapiens, HUVEC cells
Excerpt: Human umbilical vein endothelial cells (HUVEC) were purchased from Food Industry Research and Development Institute in Hsin-Chu City, Taiwan. HUVEC cells were propagated and maintained in Medium 199 supplemented with 10% FBS, Heparin, and […].
(§1) Cytotoxicity Assay (MTT Assay)

[2] = test system: HeLa cells; test: Cytotoxicity assay (MTT assay) on HeLa cells; conditions: for IC50: Homo sapiens, HeLa; for cytotoxicity to HeLa cells compared with Doxorubicin HCl: under the corresponding conditions
Method: HeLa cell line was obtained from Dr. S. S. Shen (Biomedical Engineering Research Laboratories of Industrial Technology Research Institute of Taiwan). HeLa cells are adherent cells and were propagated and maintained in Dulbecco's modified Eagle's medium (DMEM) supplemented with 10% fetal bovine serum (FBS), […] sodium bicarbonate (NaHCO3), 1 mM sodium pyruvate, and 0.1 mM non-essential amino acid.
as §1
The cytotoxicity of the compounds set forth herein to HeLa cells and HUVEC cells were determined by the MTT assay. The HUVEC cells were used to understand the cytotoxicity of said compounds to normal human cells. Besides, doxorubicin HCl was used as a comparative example so as to investigate the efficacy of the compounds according to the embodiments of the present invention.
Briefly, the MTT assay comprises the following steps: • (A) Cells were seeded in 96-well plates 3 hours before treatment, wherein the density of HeLa cell is 1×10^4 cells per well and the density of HUVEC cell is 2×10^4 cells per well; • (B) Cells were then treated with various concentrations of tested samples and incubated for a predetermined period (24, 48, and 72 hours); • (C) After the predetermined periods expired, the tested samples were removed and 100 μl MTT reagent (1 mg/ml) was added to each well; • (D) The plates were incubated at 37° C. with 5% of CO2 for 5 hours; • (E) The MTT reagent was removed and 100 μl DMSO was added to each well; • (F) The optical density (O.D.) of each well was determined by ELISA reader at a wavelength of 560 nm.
Each experiment was repeated for 3 times and the result shown in the tables herein were the mean value of the 3 repetitions. The O.D. of the vehicle control and experimental groups were recorded. The cell survival rate of each sample was calculated as follows:
Cell survival rate(%)=O.D.control/O.D.experimental*100%
Then, the cell survival rate was plotted against the compound concentration and the IC50 value of each compound was calculated by the GraFit data analysis software (Erithacus Software Ltd.).

[3] = 24 hours, read-out: IC50 at 24 hours, HUVEC
[4] = 48 hours, read-out: IC50 at 48 hours, HUVEC
[5] = 72 hours, read-out: IC50 at 72 hours, HUVEC
[6] = 24 h, read-out: IC50 at 24 hours, HeLa
[7] = 48 h, read-out: IC50 at 48 hours, HeLa
[8] = 72 h, read-out: IC50 at 72 hours, HeLa

Structure (SMILES)	HUVEC Cell Survival Rate ([1]; 0.1 μg/ml, 24 hrs)	HUVEC Cell Survival Rate ([1]; 0.1 μg/ml, 48 hrs)	HUVEC Cell Survival Rate ([1]; 0.1 μg/ml, 72 hrs)	HUVEC Cell Survival Rate ([1]; 1 μg/ml, 24 hrs)	HUVEC Cell Survival Rate ([1]; 1 μg/ml, 48 hrs)	HUVEC Cell Survival Rate ([1]; 1 μg/ml, 72 hrs)	IC50 [1, 3]	IC50 [1, 4]	IC50 [1, 5]	HeLa Cell Survival Rate ([2]; 0.1 μg/ml, 24 hrs)	HeLa Cell Survival Rate ([2]; 0.1 μg/ml, 48 hrs)	HeLa Cell Survival Rate ([2]; 0.1 μg/ml, 72 hrs)	HeLa Cell Survival Rate ([2]; 1 μg/ml, 24 hrs)	HeLa Cell Survival Rate ([2]; 1 μg/ml, 48 hrs)	HeLa Cell Survival Rate ([2]; 1 μg/ml, 72 hrs)	HeLa Cell Survival Rate ([2]; 100 μg/ml, 48 hrs)	HeLa Cell Survival Rate ([2]; 100 μg/ml, 72 hrs)	IC50 [2, 6]	IC50 [2, 7]	IC50 [2, 8]	other results
CC(C)[C@]12O[C@H]1[C@@H]1O[C@]13[C@]1(O[C@H]1C[C@H]1C4=C(CC[C@@]13C)C(=O)OC4)[C@@H]2O [Compound B, triptolide]	59%	36%	23%	71%	35%	23%	> 1 µg/mL	0.151 µg/mL (≈ 0.419 µM)	0.084 µg/mL (≈ 0.233 µM)	33%	14%	9%	26%	12%	9%	13%	9%	0.0721 µg/mL (≈ 0.2 µM)	0.00724 µg/mL (≈ 0.0201 µM)	0.00287 µg/mL (≈ 0.00796 µM)	HUVEC Cell Survival Rate ([1]; 0.001 μg/ml, 24 hrs): 93%; HUVEC Cell Survival Rate ([1]; 0.001 μg/ml, 48 hrs): 102%; HUVEC Cell Survival Rate ([1]; 0.001 μg/ml, 72 hrs): 108%; HUVEC Cell Survival Rate ([1]; 0.01 μg/ml, 24 hrs): 94%; HUVEC Cell Survival Rate ([1]; 0.01 μg/ml, 48 hrs): 111%; HUVEC Cell Survival Rate ([1]; 0.01 μg/ml, 72 hrs): 114%; HeLa Cell Survival Rate ([2]; 0.001 μg/ml, 24 hrs): 98%; HeLa Cell Survival Rate ([2]; 0.001 μg/ml, 48 hrs): 94%; HeLa Cell Survival Rate ([2]; 0.001 μg/ml, 72 hrs): 81%; HeLa Cell Survival Rate ([2]; 0.01 μg/ml, 24 hrs): 89%; HeLa Cell Survival Rate ([2]; 0.01 μg/ml, 48 hrs): 37%; HeLa Cell Survival Rate ([2]; 0.01 μg/ml, 72 hrs): 15%; HeLa Cell Survival Rate ([2]; 100 μg/ml, 24 hrs): 20%; HUVEC/HeLa ratio of IC50 ([2]; 24 hours): >13.9; HUVEC/HeLa ratio of IC50 ([2]; 48 hours): 20.9; HUVEC/HeLa ratio of IC50 ([2]; 72 hours): 29.3; cytotoxicity to HeLa cells compared with Doxorubicin HCl [2]: higher cytotoxicity
O=c1c(O)c(-c2ccc(O)c(O)c2)oc2cc(O)cc(O)c12 [Compound E, quercetin]							> 100 µg/mL	104 µg/mL (≈ 344 µM)	36 µg/mL (≈ 119 µM)	93%					91%	32%	12%	> 100 µg/mL	20 µg/mL (≈ 66.2 µM)	6 µg/mL (≈ 19.9 µM)	HUVEC Cell Survival Rate ([1]; 10 μg/ml, 48 hrs): 87%; HUVEC Cell Survival Rate ([1]; 10 μg/ml, 72 hrs): 80%; HUVEC Cell Survival Rate ([1]; 100 μg/ml, 24 hrs): 120%; HUVEC Cell Survival Rate ([1]; 100 μg/ml, 48 hrs): 51%; HUVEC Cell Survival Rate ([1]; 100 μg/ml, 72 hrs): 26%; HeLa Cell Survival Rate ([2]; 10 μg/ml, 24 hrs): 83%; HeLa Cell Survival Rate ([2]; 10 μg/ml, 48 hrs): 51%; HeLa Cell Survival Rate ([2]; 10 μg/ml, 72 hrs): 33%
Cc1cc2c(C(C)C)c(O)c(O)c(C=O)c2c(O)c1-c1c(C)cc2c(C(C)C)c(O)c(O)c(C=O)c2c1O [Compound F, gossypol-acetic acid]	93%	104%	103%	88%	104%	98%	30 µg/mL (≈ 57.9 µM)	33 µg/mL (≈ 63.6 µM)	23 µg/mL (≈ 44.4 µM)	101%	103%	98%	97%	105%	98%	13%	10%	29 µg/mL (≈ 55.9 µM)	12 µg/mL (≈ 23.1 µM)	8 µg/mL (≈ 15.4 µM)	HUVEC Cell Survival Rate ([1]; 10 μg/ml, 24 hrs): 80%; HUVEC Cell Survival Rate ([1]; 10 μg/ml, 48 hrs): 85%; HUVEC Cell Survival Rate ([1]; 10 μg/ml, 72 hrs): 71%; HUVEC Cell Survival Rate ([1]; 100 μg/ml, 24 hrs): 20%; HUVEC Cell Survival Rate ([1]; 100 μg/ml, 48 hrs): 17%; HUVEC Cell Survival Rate ([1]; 100 μg/ml, 72 hrs): 17%; HeLa Cell Survival Rate ([2]; 10 μg/ml, 24 hrs): 80%; HeLa Cell Survival Rate ([2]; 10 μg/ml, 48 hrs): 52%; HeLa Cell Survival Rate ([2]; 10 μg/ml, 72 hrs): 40%; HeLa Cell Survival Rate ([2]; 100 μg/ml, 24 hrs): 17%; HUVEC/HeLa ratio of IC50 ([2]; 24 hours): 1.0; HUVEC/HeLa ratio of IC50 ([2]; 48 hours): 2.8; HUVEC/HeLa ratio of IC50 ([2]; 72 hours): 2.9; cytotoxicity to HeLa cells compared with Doxorubicin HCl [2]: higher cytotoxicity
